# In patent US20050014849A1, “Antifungal phenylethylene” (priority 2001, published 2005):
# How the values were obtained:
# [1] = test system: Escherichia coli ATCC 25922; assay: NCCLS disk susceptibility test; type: cell-based; settings: disk diffusion
# Description: (§1) Antimicrobial activity was assayed by National Committee for Clinical Laboratory Standards (NCCLS) disk susceptibility tests. Isolated colonies from overnight cultures were suspended and diluted as recommended to yield approximately 1-2×10^8 cfu/ml, and 50 μl of this preparation immediately spread on agar plates. NCCLS recommended agar media were used for S. pneumoniae and N. gonorrhoeae, and Mueller-Hinton agar for all other bacteria. Yeast strains were tested on SDA. Excess moisture was absorbed for 10 min prior to application of 6 mm paper discs containing two-fold dilutions of TMPN in sterile DMSO.
# [2] = test system: Streptococcus pneumoniae ATCC 6303; assay: NCCLS disk susceptibility test; type: cell-based; settings: disk diffusion
# Description: as §1
# [3] = test system: Klebsiella pneumoniae Presque Isle 344; assay: NCCLS disk susceptibility test; type: cell-based; settings: disk diffusion
# Description: as §1
# [4] = test system: Pseudomonas aeruginosa Presque Isle 99; assay: NCCLS disk susceptibility test; type: cell-based; settings: disk diffusion
# Description: as §1
# [5] = test system: Enterococcus faecalis ATCC 29212; assay: NCCLS disk susceptibility test; type: cell-based; settings: disk diffusion
# Description: as §1
# [6] = test system: Candida albicans ATCC 90028; assay: NCCLS disk susceptibility test; type: cell-based; settings: disk diffusion
# Description: as §1
# [7] = test system: Enterobacter cloacae ATCC 13047; assay: NCCLS disk susceptibility test; type: cell-based; settings: disk diffusion
# Description: as §1
# [8] = test system: Cryptococcus neoformans ATCC 90112; assay: NCCLS disk susceptibility test; type: cell-based; settings: disk diffusion
# Description: as §1
# [9] = test system: Staphylococcus epidermidis Presque Isle 4653; assay: NCCLS disk susceptibility test; type: cell-based; settings: disk diffusion
# Description: as §1
# [10] = test system: Neisseria gonorrhoeae ATCC 49226; assay: NCCLS disk susceptibility test; type: cell-based; settings: disk diffusion
# Description: as §1
# [11] = test system: Proteus vulgaris Presque Isle 365; assay: NCCLS disk susceptibility test; type: cell-based; settings: disk diffusion
# Description: as §1
# [12] = test system: Staphylococcus aureus ATCC 29213; assay: NCCLS disk susceptibility test; type: cell-based; settings: disk diffusion
# Description: as §1
# [13] = test system: Micrococcus luteus Presque Isle 456; assay: NCCLS disk susceptibility test; type: cell-based; settings: disk diffusion
# Description: as §1
# [14] = test system: Stenotrophomonas maltophilia ATCC 13637; assay: NCCLS disk susceptibility test; type: cell-based; settings: disk diffusion
# Description: as §1
# [15] = test system: Bacillus subtilis Presque Isle 620; assay: NCCLS disk susceptibility test; type: cell-based; settings: disk diffusion
# Description: as §1
# [16] = test system: R. nigracans (ASU culture collection); assay: Broth macrodilution MIC/MFC, filamentous fungi; type: cell-based, Rhizopus nigracans
# Description: (§2) Susceptibility testing of filamentous fungi was also conducted. Broth macrodilution susceptibility testing of P. lilacinus, Rhizopus spp. and Aspergillus spp. was performed in accordance with a proposed standardized procedure with slight modification. To induce conidium and sporangiospore formation, fungi were grown on PDA slants at 35° C. for 6 days (P. lilacinus, Rhizopus spp., all Aspergillus species except A. nidulans) or 3 days (A. nidulans). Fungal slants were covered with sterile 0.85% NaCl (P. lilacinus, Rhizopus spp., all Aspergillus species except A. nidulans) or 0.05% Tween 80 (A. nidulans), and suspensions were made by gently probing the colonies with the tip of a sterile Pasteur pipette. The resulting mixture of hyphal fragments and conidia or sporangiospores was withdrawn and transferred to a sterile clear microcentrifuge tube, and heavy particles were allowed to settle for 10 min. […] Susceptibility to TMPN was then determined by broth macrodilution as described above for yeast isolates. […]
# (§3) Minimum fungicidal concentrations (MFCs) were determined by subculturing 0.1 ml from each tube with no visible growth in the MIC broth macrodilution series onto the appropriate drug-free plates (see Fungal Strains section above).
# T. ovoides ATCC 90040 = assay: Broth macrodilution MIC/MFC; type: cell-based, Trichosporon ovoides
# Description: (§4) TMPN was screened against yeasts by the broth macrodilution assay according to the NCCLS [7]. Yeasts were suspended and diluted as recommended to yield final inocula ranging from 0.5-2.5×10^3 cfu/ml. Tests were performed in sterile 12 by 75 mm plastic tubes containing two-fold dilutions of TMPN in 0.165 M morpholinepropanesulfonic acid buffered RPMI 1640 medium (pH 7.0). One tube was again left drug free (but contained an equivalent volume of DMSO) for a turbidity control. Tubes were incubated without agitation at the appropriate temperature (see Fungal Strains section above). MICs were determined after 72 h for Cryptococcus and after 48 h for other yeast genera. The MIC was defined as the lowest concentration of TMPN that inhibited all visible growth of the test organism (optically clear).
# as §3
# [17] = test system: Ketoconazole-resistant C. albicans ATCC 64124; assay: Broth macrodilution MIC/MFC; type: cell-based, Candida albicans
# Description: as §4, §3
# C. albicans ATCC 10231 = assay: Broth macrodilution MIC/MFC; type: cell-based, Candida albicans
# Description: as §4, §3
# C. albicans ATCC 60193 = assay: Broth macrodilution MIC/MFC; type: cell-based, Candida albicans
# Description: as §4, §3
# C. rugosa (7) = assay: Broth macrodilution MIC/MFC; type: cell-based, Candida rugosa
# Description: as §4, §3
# [18] = test system: A. flavus (ASU culture collection); assay: Broth macrodilution MIC/MFC, filamentous fungi; type: cell-based, Aspergillus flavus
# Description: as §2, §3
# C. guilliermondii (9) = assay: Broth macrodilution MIC/MFC; type: cell-based, Candida guilliermondii
# Description: as §4, §3
# CNS SF-295 = assay: Sulforhodamine B cancer cell growth inhibition; type: cell-based; settings: Homo sapiens, 48 h, read-out: GI50 (inhibition of 50% of cell growth)
# Description: (§5) An investigation TMPN's in vitro antineoplastic activity was also conducted. This investigation included an analysis of both cell growth, and of the effects of TMPN upon tubulin. Inhibition of cancer cell growth was assessed using the Sulforhodamine B assay as previously described. Briefly, cells in 5% fetal calf serum/RPMI-1640 were inoculated into 96 well plates, incubated 24 h and 10-fold dilutions of TMPN added. After a 48 h incubation, plates were fixed with trichloroacetic acid, washed, stained with Sulforhodamine B and read with an automated microtiter plate reader.
# Ovarian OVCAR-3 = assay: Sulforhodamine B cancer cell growth inhibition; type: cell-based; settings: Homo sapiens, 48 h, read-out: GI50 (inhibition of 50% of cell growth)
# Description: as §5
smiles,measurement,setting,value
"COc1cc(C=C[N+](=O)[O-])cc(OC)c1OC [TMPN, 1-(3′,4′,5′-trimethoxyphenyl)-2-nitro-ethylene]",MIC,[1],>100 μg/disk
same,MIC,[2],3.12-6.25 μg/disk
same,MIC,[3],>100 μg/disk
same,MIC,[4],>100 μg/disk
same,MIC,[5],50-100 μg/disk
same,MIC,[6],6.25-12.5 μg/disk
same,MIC,[7],>100 μg/disk
same,MIC,[8],0.78-1.56 μg/disk
same,MIC,[9],50-100 μg/disk
same,MIC,[10],0.39-0.78 μg/disk
same,MIC,[11],12.5-25 μg/disk
same,MIC,[12],3.12-6.25 μg/disk
same,MIC,[13],50-100 μg/disk
same,MIC,[14],>100 μg/disk
same,MIC,[15],50-100 μg/disk
same,MFC Range,[16],>64 µg/mL
same,MIC Range,[16],32 µg/mL
same,MFC Range,T. ovoides ATCC 90040,32 µg/mL
same,MIC Range,T. ovoides ATCC 90040,16 µg/mL
same,MFC Range,[17],32 µg/mL
same,MIC Range,[17],16 µg/mL
same,MFC Range,C. albicans ATCC 10231,8 µg/mL
same,MIC Range,C. albicans ATCC 10231,8 µg/mL
same,MFC Range,C. albicans ATCC 60193,16 µg/mL
same,MIC Range,C. albicans ATCC 60193,16 µg/mL
same,MIC Range,C. rugosa (7),1 to 64 µg/mL
same,MFC Range,[18],>64 µg/mL
same,MIC Range,[18],16 µg/mL
same,MFC Range,C. guilliermondii (9),>64 µg/mL
same,GI50,CNS SF-295,2 µg/mL
same,GI50,Ovarian OVCAR-3,1.8 µg/mL
